Columns and labels:
Assay type in all cases: toxicity, cell-based
U2OS = assay: Incucyte cell viability with U2OS; settings: human, 10 µM, compound concentration 10 uM
Fibroblast = assay: Incucyte cell viability with human fibroblast; settings: 10 µM, compound concentration 10 uM
HEK-293T = assay: Incucyte cell viability with HEK293T; settings: human, 10 µM, compound concentration 10 uM
[1] = 0 h, replicate number 1, timepoint 0 hours
[2] = 6 h, replicate number 1, timepoint 6 hours
[3] = 6 h, replicate number 2, timepoint 6 hours
[4] = 12 h, replicate number 1, timepoint 12 hours
[5] = 12 h, replicate number 2, timepoint 12 hours
[6] = 18 h, replicate number 1, timepoint 18 hours
[7] = 18 h, replicate number 2, timepoint 18 hours
[8] = 24 h, replicate number 1, timepoint 24 hours
[9] = 0 h, replicate number 2, timepoint 0 hours
[10] = 24 h, replicate number 2, timepoint 24 hours
Note: unitless GR value; below 1 slowed growth and below 0 cell loss.

COc1cc2nc(N(C)CCCNC(=O)C3CCCO3)nc(N)c2cc1OC.Cl (centres undefined) [ALFUZOSIN HYDROCHLORIDE]
Growth Rate (U2OS; [1]): -0.55
Growth Rate (U2OS; [2]): 0.24
Growth Rate (U2OS; [3]): 0.85
Growth Rate (U2OS; [4]): 0.43
Growth Rate (U2OS; [5]): 0.97
Growth Rate (U2OS; [6]): 0.72
Growth Rate (U2OS; [7]): 0.93
Growth Rate (U2OS; [8]): 0.81
Growth Rate (Fibroblast; [1]): 0.72
Growth Rate (Fibroblast; [9]): 0.06
Growth Rate (Fibroblast; [3]): 0.11
Growth Rate (Fibroblast; [5]): 0.51
Growth Rate (Fibroblast; [7]): 0.61
Growth Rate (Fibroblast; [8]): 0.72
Growth Rate (Fibroblast; [10]): 0.47
Growth Rate (HEK-293T; [1]): 0.21
Growth Rate (HEK-293T; [9]): 0.19
Growth Rate (HEK-293T; [2]): 0.54
Growth Rate (HEK-293T; [6]): 0.99
Growth Rate (HEK-293T; [8]): 0.99
Growth Rate (HEK-293T; [10]): 0.96

CC(C)CC(=O)Nc1cncc(-c2ccc3[nH]nc(-c4nc5c(-c6cccc(F)c6)cncc5[nH]4)c3c2)c1 [LORECIVIVINT]
Growth Rate (U2OS; [1]): -0.33
Growth Rate (U2OS; [9]): -0.94
Growth Rate (U2OS; [2]): -0.82
Growth Rate (U2OS; [3]): -0.16
Growth Rate (U2OS; [4]): -0.56
Growth Rate (U2OS; [5]): 0.32
Growth Rate (U2OS; [6]): -0.16
Growth Rate (U2OS; [7]): 0.98
Growth Rate (U2OS; [8]): 0.71
Growth Rate (Fibroblast; [9]): 0.49
Growth Rate (Fibroblast; [2]): -0.2
Growth Rate (Fibroblast; [3]): -0.06
Growth Rate (Fibroblast; [4]): 0.36
Growth Rate (Fibroblast; [5]): -0.03
Growth Rate (Fibroblast; [6]): 0.73
Growth Rate (Fibroblast; [7]): 0.01
Growth Rate (Fibroblast; [8]): 0.43
Growth Rate (Fibroblast; [10]): -0.02
Growth Rate (HEK-293T; [2]): -0.81
Growth Rate (HEK-293T; [3]): -0.95
Growth Rate (HEK-293T; [4]): -0.55
Growth Rate (HEK-293T; [5]): -0.81
Growth Rate (HEK-293T; [6]): -0.48
Growth Rate (HEK-293T; [7]): -0.64
Growth Rate (HEK-293T; [8]): -0.44
Growth Rate (HEK-293T; [10]): -0.57

Cc1cc(Cn2cnc3c2C[C@@H](C(=O)O)N(C(=O)C(c2ccccc2)c2ccccc2)C3)ccc1N(C)C
Growth Rate (U2OS; [9]): 0.34
Growth Rate (U2OS; [10]): 0.97
Growth Rate (Fibroblast; [1]): 0.15
Growth Rate (Fibroblast; [2]): 0.22
Growth Rate (Fibroblast; [6]): 0.53
Growth Rate (Fibroblast; [7]): 0.97
Growth Rate (Fibroblast; [8]): 0.39
Growth Rate (Fibroblast; [10]): 0.88
Growth Rate (HEK-293T; [2]): 0.56
Growth Rate (HEK-293T; [3]): 0.61
Growth Rate (HEK-293T; [4]): 0.72
Growth Rate (HEK-293T; [5]): 0.75
Growth Rate (HEK-293T; [6]): 0.7
Growth Rate (HEK-293T; [7]): 0.99
Growth Rate (HEK-293T; [8]): 0.85

N[C@@H]1c2cccnc2[C@H](OC(=O)N2CCC(n3c(=O)[nH]c4ncccc43)CC2)CC[C@H]1c1cccc(F)c1F [RIMEGEPANT]
Growth Rate (U2OS; [1]): -0.42
Growth Rate (U2OS; [3]): 0.88
Growth Rate (U2OS; [7]): 0.96
Growth Rate (U2OS; [10]): 0.87
Growth Rate (Fibroblast; [1]): 0.86
Growth Rate (Fibroblast; [2]): -0.21
Growth Rate (Fibroblast; [3]): 0.05
Growth Rate (Fibroblast; [4]): -0.05
Growth Rate (Fibroblast; [5]): -0.02
Growth Rate (Fibroblast; [6]): 0.2
Growth Rate (Fibroblast; [7]): 0.18
Growth Rate (Fibroblast; [8]): 0.1
Growth Rate (Fibroblast; [10]): -0.18
Growth Rate (HEK-293T; [9]): 0.87
Growth Rate (HEK-293T; [2]): 0.99
Growth Rate (HEK-293T; [3]): 0.67
Growth Rate (HEK-293T; [8]): 0.89

CC(=O)Nc1cccc2c1c(Sc1ccc(Cl)cc1)c(C)n2CC(=O)O [AZD1981]
Growth Rate (U2OS; [3]): 0.93
Growth Rate (U2OS; [7]): 0.89
Growth Rate (U2OS; [10]): 0.95
Growth Rate (Fibroblast; [9]): 0.38
Growth Rate (Fibroblast; [2]): 0.15
Growth Rate (Fibroblast; [3]): 0.04
Growth Rate (Fibroblast; [4]): 0.35
Growth Rate (Fibroblast; [5]): 0.14
Growth Rate (Fibroblast; [7]): 0.25
Growth Rate (Fibroblast; [8]): 0.73
Growth Rate (Fibroblast; [10]): 0.26
Growth Rate (HEK-293T; [9]): 0.75
Growth Rate (HEK-293T; [2]): 0.62
Growth Rate (HEK-293T; [4]): 0.62
Growth Rate (HEK-293T; [6]): 0.83
Growth Rate (HEK-293T; [8]): 0.71

O=C(O)CCC/C=C\C[C@H]1C(=O)C[C@@H](O)[C@@H]1/C=C/[C@@H](O)CCc1ccccc1
Growth Rate (U2OS; [1]): 0.49
Growth Rate (U2OS; [2]): 0.41
Growth Rate (U2OS; [4]): 0.52
Growth Rate (U2OS; [6]): 0.77
Growth Rate (U2OS; [8]): 0.97
Growth Rate (Fibroblast; [1]): 0.15
Growth Rate (Fibroblast; [9]): -0.3
Growth Rate (Fibroblast; [2]): 0
Growth Rate (Fibroblast; [4]): 0.4
Growth Rate (Fibroblast; [6]): 0.74
Growth Rate (Fibroblast; [8]): 0.66
Growth Rate (HEK-293T; [9]): -0.05
Growth Rate (HEK-293T; [2]): 0.8
Growth Rate (HEK-293T; [4]): 0.68
Growth Rate (HEK-293T; [6]): 1
Growth Rate (HEK-293T; [8]): 0.89

CC[C@H](NC(=O)c1c(C)c(-c2ccccc2)nc2ccccc12)c1ccccc1 [SB-222200]
Growth Rate (U2OS; [9]): -1
Growth Rate (U2OS; [5]): 0.93
Growth Rate (U2OS; [7]): 0.84
Growth Rate (U2OS; [10]): 0.93
Growth Rate (Fibroblast; [2]): 0.45
Growth Rate (Fibroblast; [3]): -0.34
Growth Rate (Fibroblast; [4]): 0.45
Growth Rate (Fibroblast; [5]): 0.48
Growth Rate (Fibroblast; [6]): 0.64
Growth Rate (Fibroblast; [7]): 0.91
Growth Rate (Fibroblast; [8]): 0.67
Growth Rate (Fibroblast; [10]): 0.98
Growth Rate (HEK-293T; [2]): 0.76
Growth Rate (HEK-293T; [3]): 0.41
Growth Rate (HEK-293T; [4]): 0.77
Growth Rate (HEK-293T; [5]): 0.72
Growth Rate (HEK-293T; [6]): 0.97
Growth Rate (HEK-293T; [8]): 0.88

COC(=O)N1CCN(C(=O)Cc2ccc(Cl)c(Cl)c2)C(CN2CCCC2)C1.O=C(O)/C=C/C(=O)O (centres undefined)
Growth Rate (U2OS; [2]): 0.36
Growth Rate (U2OS; [3]): 0.4
Growth Rate (U2OS; [4]): 0.75
Growth Rate (U2OS; [5]): 0.54
Growth Rate (U2OS; [7]): 0.75
Growth Rate (U2OS; [10]): 0.76
Growth Rate (Fibroblast; [9]): 0.83
Growth Rate (Fibroblast; [3]): 0.71
Growth Rate (HEK-293T; [1]): 1
Growth Rate (HEK-293T; [5]): 0.72

Nc1nc(-c2ccco2)c2cnn(Cc3ccccc3F)c2n1
Growth Rate (U2OS; [1]): -0.81
Growth Rate (U2OS; [2]): 0.66
Growth Rate (U2OS; [3]): 0.28
Growth Rate (U2OS; [5]): 0.27
Growth Rate (U2OS; [6]): 0.95
Growth Rate (U2OS; [7]): 0.48
Growth Rate (U2OS; [8]): 0.89
Growth Rate (U2OS; [10]): 0.48
Growth Rate (Fibroblast; [2]): -0.86
Growth Rate (Fibroblast; [3]): -0.89
Growth Rate (Fibroblast; [4]): -0.81
Growth Rate (Fibroblast; [5]): -0.55
Growth Rate (Fibroblast; [6]): -0.75
Growth Rate (Fibroblast; [7]): -0.29
Growth Rate (Fibroblast; [8]): -0.66
Growth Rate (Fibroblast; [10]): -0.09
Growth Rate (HEK-293T; [2]): -0.23
Growth Rate (HEK-293T; [3]): -0.21
Growth Rate (HEK-293T; [4]): -0.22
Growth Rate (HEK-293T; [5]): -0.25
Growth Rate (HEK-293T; [6]): -0.17
Growth Rate (HEK-293T; [7]): -0.05
Growth Rate (HEK-293T; [8]): -0.12
Growth Rate (HEK-293T; [10]): 0.12

Cc1[nH]cnc1CN1CCc2c(c3ccccc3n2C)C1=O [ALOSETRON]
Growth Rate (U2OS; [2]): 0.03
Growth Rate (U2OS; [6]): 0.89
Growth Rate (U2OS; [7]): 0.87
Growth Rate (U2OS; [10]): 0.9
Growth Rate (Fibroblast; [1]): 0.35
Growth Rate (Fibroblast; [3]): 0.22
Growth Rate (Fibroblast; [7]): 1
Growth Rate (HEK-293T; [1]): 0.73
Growth Rate (HEK-293T; [3]): 0.39
Growth Rate (HEK-293T; [7]): 0.96

CSc1nc(NC2CCCC2)c([N+](=O)[O-])c(NC2CCCC2)n1 [GS-39783]
Growth Rate (U2OS; [1]): 0.05
Growth Rate (U2OS; [9]): -1
Growth Rate (U2OS; [3]): 0.83
Growth Rate (U2OS; [5]): 0.75
Growth Rate (U2OS; [7]): 0.75
Growth Rate (U2OS; [10]): 0.92
Growth Rate (Fibroblast; [9]): 0.9
Growth Rate (Fibroblast; [2]): -0.14
Growth Rate (Fibroblast; [3]): 0.69
Growth Rate (Fibroblast; [4]): -0.14
Growth Rate (Fibroblast; [6]): 0.18
Growth Rate (Fibroblast; [8]): 0.19
Growth Rate (HEK-293T; [1]): 0.5
Growth Rate (HEK-293T; [9]): 0.78
Growth Rate (HEK-293T; [4]): 0.97
Growth Rate (HEK-293T; [5]): 0.85
Growth Rate (HEK-293T; [7]): 0.92

CC(C)(C)c1ccc(CSc2cnn(C(C)(C)C)c(=O)c2Cl)cc1 [PYRIDABEN]
Growth Rate (U2OS; [9]): -1
Growth Rate (U2OS; [6]): 0.62
Growth Rate (U2OS; [7]): 0.92
Growth Rate (U2OS; [8]): 0.86
Growth Rate (U2OS; [10]): 0.96
Growth Rate (Fibroblast; [9]): -0.26
Growth Rate (Fibroblast; [2]): -0.33
Growth Rate (Fibroblast; [3]): 0.56
Growth Rate (Fibroblast; [4]): -0.26
Growth Rate (Fibroblast; [5]): 0.81
Growth Rate (Fibroblast; [6]): -0.13
Growth Rate (Fibroblast; [7]): 0.71
Growth Rate (Fibroblast; [8]): -0.12
Growth Rate (Fibroblast; [10]): 0.08
Growth Rate (HEK-293T; [1]): 0.63
Growth Rate (HEK-293T; [9]): 0.94
Growth Rate (HEK-293T; [2]): -0.14
Growth Rate (HEK-293T; [3]): -0.1
Growth Rate (HEK-293T; [4]): 0.01
Growth Rate (HEK-293T; [5]): -0.01
Growth Rate (HEK-293T; [6]): 0.13
Growth Rate (HEK-293T; [7]): 0.2
Growth Rate (HEK-293T; [8]): 0.1
Growth Rate (HEK-293T; [10]): 0.22

Nc1nc(Nc2ccccc2)nc2c1ncn2[C@@H]1O[C@H](CO)[C@@H](O)[C@H]1O
Growth Rate (U2OS; [1]): 0.4
Growth Rate (U2OS; [2]): 0.95
Growth Rate (U2OS; [4]): 0.84
Growth Rate (U2OS; [7]): 0.91
Growth Rate (U2OS; [8]): 0.93
Growth Rate (Fibroblast; [1]): 0.77
Growth Rate (Fibroblast; [9]): 0.2
Growth Rate (Fibroblast; [4]): 0.83
Growth Rate (Fibroblast; [5]): 0.96
Growth Rate (Fibroblast; [8]): 0.93
Growth Rate (HEK-293T; [1]): 0.49
Growth Rate (HEK-293T; [9]): -0.14
Growth Rate (HEK-293T; [2]): 0.52
Growth Rate (HEK-293T; [3]): 0.76
Growth Rate (HEK-293T; [4]): 0.7
Growth Rate (HEK-293T; [5]): 0.63
Growth Rate (HEK-293T; [6]): 0.76
Growth Rate (HEK-293T; [7]): 0.95
Growth Rate (HEK-293T; [8]): 0.85
Growth Rate (HEK-293T; [10]): 0.9

Reference: ChEMBL document CHEMBL5058564, “EUbOPEN Chemogenomics Library 2 (Incucyte)” (2022)
